Assay results as given in patent US12116358B2, “Substituted indoles and methods of use thereof” (EPIZYME, INC., priority 2018, dated 2024).
Where two headings read alike, the source gives them in different places.

Key:
[1] = target: T1, SETD2(1434-1711) (Homo sapiens, UniProt Q9BYW2); assay: SETD2 (1434-1711) assay; format: biochemical; settings: read-out: SETD2 (1434-1711)
T1 construct: SETD2 (1434-1711) Assay; catalogue N/A
T1 sequence (Q9BYW2 1434-1711): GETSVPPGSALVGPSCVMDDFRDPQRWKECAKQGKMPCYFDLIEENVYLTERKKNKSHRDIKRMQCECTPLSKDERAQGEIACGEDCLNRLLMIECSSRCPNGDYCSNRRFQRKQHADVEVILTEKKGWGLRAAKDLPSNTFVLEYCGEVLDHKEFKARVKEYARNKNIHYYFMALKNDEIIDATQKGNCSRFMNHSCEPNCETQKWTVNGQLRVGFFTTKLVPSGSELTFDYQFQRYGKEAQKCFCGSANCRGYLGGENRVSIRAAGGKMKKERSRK

[2] = system: H3K36me3 in A549 cells; assay: In-Cell Western (ICW) assay of SETD2 inhibitors (A549 assay); format: cell-based, human; settings: A549 cells, read-out: SETD2 A549
In short: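 H3K36me3 In-Cell Western: cells exposed to compound for 3 days at 4,000 cells/well, 37° C. DRAQ5 (1:1000) marked cell number, with 700/800-channel Licor read-out.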

Compound | IC50 [1] [nM] | IC50 ([2]; Homo sapiens) [nM] | IC50 [2] [nM]
Cc1cc(Cn2ccnc2)cnc1C(NC(=O)c1cc2cccc(C)c2[nH]1)C1CC1 (stereo not shown) [compound 309] | 200 | 1300 | 
Cc1ccc(F)c2cc(C(=O)Nc3cccc(N4CCN(c5ccccc5)CC4)c3)[nH]c12 [compound 312] | 800 | 1300 | 
Cc1ccc(F)c2cc(C(=O)Nc3cccc(C(C)(C)O)c3)[nH]c12 [compound 315] | 600 | 1400 | 
Cc1ccc(F)c2cc(C(=O)Nc3cccc(N4CCN(C)CC4C)c3)[nH]c12 (stereo not shown) [compound 318] | 200 | 1400 | 
Cc1c(NC(=O)c2cc3c(F)ccc(C)c3[nH]2)cccc1N1CCN(C)CC1 [compound 320] | 200 | 1400 | 
Cc1ccc(F)c2cc(C(=O)Nc3cccc(N4CCNCC4=O)c3)[nH]c12 [compound 321] | 200 | 1500 | 
Cc1ccc(F)c2cc(C(=O)Nc3cccc(-c4ccn[nH]4)c3)[nH]c12 [compound 322] | 500 | 1500 | 
Cc1ccc(F)c2cc(C(=O)Nc3cccc(N(C)C4CCNCC4)c3)[nH]c12 [compound 325] | 70 | 1500 | 
CNc1cccc(-c2cccc(NC(=O)c3cc4c(F)ccc(C)c4[nH]3)c2)n1 [compound 326] | 200 | 1600 | 
Cc1ccc(F)c2cc(C(=O)NC3C(=O)NCCc4ccccc43)[nH]c12 (stereo not shown) [compound 327] | 500 |  | 1600
Cc1ccc(F)c2cc(C(=O)Nc3cccc(C(=O)N(C)C)c3)[nH]c12 [compound 329] | 600 | 1600 | 
Cc1ccc(F)c2cc(C(=O)Nc3cccc(N4CCOCC4CCO)c3)[nH]c12 (stereo not shown) [compound 331] | 600 | 1600 | 
Cc1ccc(F)c2cc(C(=O)Nc3cccc(N4CCCC4)c3)[nH]c12 [compound 332] | 200 |  | 1600
Cc1ccc(F)c2cc(C(=O)Nc3cc(Cl)cc(CN4CCOCC4)c3)[nH]c12 [compound 333] | 300 |  | 1600
Cc1cccnc1C(CCC(=O)N1CCOCC1)NC(=O)c1cc2c(F)ccc(C)c2[nH]1 (stereo not shown) [compound 334] | 700 | 1600 | 
Cc1ccc(F)c2cc(C(=O)Nc3cccc(N4CCC(C(C)C)CC4)c3)[nH]c12 [compound 336] | 400 |  | 1600
Cc1ccc(F)c2cc(C(=O)Nc3cccc(-c4c[nH]cn4)c3)[nH]c12 [compound 337] | 400 |  | 1600
Cc1ccc(F)c2cc(C(=O)Nc3cccc(CCO)c3)[nH]c12 [compound 341] | 200 |  | 1700
Cc1ccc(F)c2cc(C(=O)Nc3cccc(N(C)C4CCN(C)C4)c3)[nH]c12 (stereo not shown) [compound 342] | 100 | 1800 | 
Cc1ccc(F)c2cc(C(=O)Nc3cccc(N4CCN(C)CC4)n3)[nH]c12 [compound 344] | 200 |  | 1800
Cc1ccc(F)c2cc(C(=O)Nc3cccc(-c4ccc(CO)cc4)c3)[nH]c12 [compound 346] | 100 |  | 1800

Compound | IC50 [1] [nM] | IC50 ([2]; Homo sapiens) [nM] | IC50 [2] [nM]
Cc1ccc(F)c2cc(C(=O)Nc3cccc(N(C)C4CCN(C)CC4)c3)[nH]c12 [compound 351] | 90 |  | > 2000
Cc1ccc(F)c2cc(C(=O)Nc3cccc(CC4CCCN(C)C4)c3)[nH]c12 (stereo not shown) [compound 352] | 100 | > 2000 | 
Cc1ccc(F)c2cc(C(=O)Nc3cc(F)cc([C@H]4CC[C@H](N5CCOCC5)CC4)c3)[nH]c12 [compound 353] | 100 |  | > 2000
Cc1ccc(F)c2cc(C(=O)Nc3cccc(-c4cc5ccccn5n4)c3)[nH]c12 [compound 354] | 300 |  | > 2000
Cc1ccc(F)c2cc(C(=O)Nc3cc(N4CCN(C)CC4)n4ccnc4c3)[nH]c12 [compound 355] | 500 | > 2000 | 
Cc1cccnc1C(Cc1cn(CC2CC2)cn1)NC(=O)c1cc2c(F)ccc(C)c2[nH]1 (stereo not shown) [compound 356] | 600 | > 2000 | 
Cc1ccc(F)c2cc(C(=O)Nc3cccc(Cc4ncc[nH]4)c3)[nH]c12 [compound 357] | 700 |  | > 2000
Cc1cccnc1C(Cc1ccc(CN2CCOCC2)cc1)NC(=O)c1cc2c(F)ccc(C)c2[nH]1 (stereo not shown) [compound 358] | 900 |  | > 2000
CC(=O)N1CCN(C2CC(NC(=O)c3cc4c(F)ccc(C)c4[nH]3)CN(C)C2)CC1 (stereo not shown) [compound 360] | 1200 |  | > 2000
Cc1ccc(F)c2cc(C(=O)NC3C(=O)NCCc4cccnc43)[nH]c12 (stereo not shown) [compound 361] | 1300 | > 2000 | 
Cc1ccc(F)c2cc(C(=O)N[C@H]3CCC[C@H](N4CCCOCC4)C3)[nH]c12 [compound 362] | 1400 | > 2000 | 
CC(=O)N1CCN(C2COCC(NC(=O)c3cc4c(F)ccc(C)c4[nH]3)C2)CC1 (stereo not shown) [compound 363] | 1500 |  | > 2000
Cc1ccc(F)c2cc(C(=O)NC3CNCCc4ccccc43)[nH]c12 (stereo not shown) [compound 364] | 2000 |  | > 2000
CC(=O)N1CC2CC(C1)N2c1cccc(NC(=O)c2cc3c(F)ccc(C)c3[nH]2)c1 [compound 365] | 2600 |  | > 2000
CC(=O)N1CCC(N2CCCC(NC(=O)c3cc4c(F)ccc(C)c4[nH]3)C2)CC1 (stereo not shown) [compound 366] | 3000 | > 2000 | 
Cc1ccc(F)c2cc(C(=O)NC3CCCN(C4CCN(C)C(=O)C4)C3)[nH]c12 (stereo not shown) [compound 367] | 4200 |  | > 2000
Cc1ccc(F)c2cc(C(=O)NC3COCC(c4cncnc4)C3)[nH]c12 (stereo not shown) [compound 368] | 6100 |  | > 2000
Cc1ccc(F)c2cc(C(=O)NC3CCCC(c4cncnc4)C3)[nH]c12 (stereo not shown) [compound 369] | 6300 |  | > 2000
Cc1ccc(F)c2cc(C(=O)NC3CCCC(N4CCCN(C)C(=O)C4)C3)[nH]c12 (stereo not shown) [compound 370] | 6800 |  | > 2000
Cc1ccc(F)c2cc(C(=O)Nc3ncc(C4CCN(C)CC4)[nH]3)[nH]c12 [compound 371] | > 10000 | > 2000 | 
Cc1ccc(F)c2cc(C(=O)Nc3cccc(N4CCC(N(C)C)(C(F)(F)F)CC4)c3)[nH]c12 [compound 375] | > 10000 |  | > 2000

Continued by falling IC50 [1], values first:

IC50 [1] [nM] | IC50 ([2]; Homo sapiens) [nM] | IC50 [2] [nM] | Compound
100 | 1300 |  | Cc1ccc(F)c2cc(C(=O)Nc3cccc(N4CC[C@@H](N(C)C)C[C@H]4C)c3)[nH]c12 [compound 308]
100 | 1400 |  | Cc1ccc(F)c2cc(C(=O)Nc3cccc(-c4ncccn4)c3)[nH]c12 [compound 316]
100 | 1400 |  | Cc1cn(Cc2cnc(C(NC(=O)c3cc4c(F)ccc(C)c4[nH]3)C3CC3)c(C)c2)c(C)n1 (stereo not shown) [compound 317]
100 | 1400 |  | Cc1ccc(F)c2cc(C(=O)Nc3cccc(-c4nnc(N)o4)c3)[nH]c12 [compound 319]
100 | 1700 |  | Cc1ccc(F)c2cc(C(=O)Nc3cc(N4CCN(C)CC4)c4nccn4c3)[nH]c12 [compound 338]
80 | 1600 |  | Cc1ccc(F)c2cc(C(=O)Nc3cccc(N4CCCC(N(C)C)C4)c3)[nH]c12 (stereo not shown) [compound 335]
80 |  | 1800 | Cc1ccc(F)c2cc(C(=O)Nc3cccc(C4CCC(N(C)C)CC4)c3)[nH]c12 (stereo not shown) [compound 343]
80 | > 2000 |  | Cc1ccc(F)c2cc(C(=O)Nc3cc(N4CCN(C)CC4)c4ncccc4c3)[nH]c12 [compound 350]
70 | 1500 |  | Cc1ccc(F)c2cc(C(=O)Nc3cccc(OCCN(C)C)c3)[nH]c12 [compound 323]
70 | 1600 |  | Cc1ccc(F)c2cc(C(=O)Nc3cccc(NC4CCN(C)C4)c3)[nH]c12 (stereo not shown) [compound 330]
70 |  | 1900 | Cc1ccc(F)c2cc(C(=O)Nc3cccc(N4CC5CC4CN5C)c3)[nH]c12 (stereo not shown) [compound 348]
60 | 1800 |  | Cc1ccc(F)c2cc(C(=O)Nc3cc(C#N)cc(N4CCC(N(C)C)CC4)c3)[nH]c12 [compound 345]
50 | 1300 |  | Cc1ccc(F)c2cc(C(=O)Nc3cccc(N4CCCC(N)C4)c3)[nH]c12 (stereo not shown) [compound 310]
50 | 1500 |  | Cc1ccc(F)c2cc(C(=O)Nc3cccc([C@H]4CC[C@@H](N(C)C)C4)c3)[nH]c12 [compound 324]
40 | 1300 |  | Cc1ccc(F)c2cc(C(=O)Nc3cccc(NC(=O)C4CCCN4)c3)[nH]c12 (stereo not shown) [compound 314]
40 | 1600 |  | Cc1ccc(F)c2cc(C(=O)Nc3cccc(N4CCn5cnnc5C4)c3)[nH]c12 [compound 328]
40 | 1700 |  | Cc1ccc(F)c2cc(C(=O)Nc3cc(Cl)cc([C@H]4CC[C@H](N(C)C)CC4)c3)[nH]c12 [compound 339]
30 | 1300 |  | Cc1ccc(F)c2cc(C(=O)Nc3cc(C(F)F)cc(N4CCC(N(C)C)CC4)c3)[nH]c12 [compound 311]
30 | 1300 |  | Cc1ccc(F)c2cc(C(=O)Nc3cc(F)cc([C@H]4CC[C@H](N(C)C)CC4)c3)[nH]c12 [compound 313]
3 |  | 1900 | Cc1ccc(F)c2cc(C(=O)Nc3cccc(N4CCC(N5CCC(N)CC5)C4)c3)[nH]c12 (stereo not shown) [compound 347]
